In brackets after ≈: the same amount, converted by molar mass.
Key:
ABHD6 = biological target: T1, ABHD6 (Mus musculus, UniProt Q8R2Y0); assay: In vitro competitive activity-based protein profiling (Table 2, % inhibition at 1 μM); assay type: biochemical; conditions: read-out: % Inhibition at 1 μM ABHD6
T1 sequence (Q8R2Y0 1-336): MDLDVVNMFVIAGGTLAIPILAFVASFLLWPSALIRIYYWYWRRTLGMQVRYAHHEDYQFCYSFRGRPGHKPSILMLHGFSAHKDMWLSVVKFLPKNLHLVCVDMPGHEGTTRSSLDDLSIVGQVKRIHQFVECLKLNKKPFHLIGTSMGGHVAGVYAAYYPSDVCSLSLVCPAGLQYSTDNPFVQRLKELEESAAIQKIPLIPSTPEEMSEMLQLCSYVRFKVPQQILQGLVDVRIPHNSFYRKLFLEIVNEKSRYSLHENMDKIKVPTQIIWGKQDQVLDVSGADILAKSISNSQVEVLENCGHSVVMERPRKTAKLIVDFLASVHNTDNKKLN

FAAH = biological target: T2, FAAH (Mus musculus, UniProt O08914); assay: as above; assay type: biochemical; conditions: read-out: % Inhibition at 1 μM FAAH
T2 sequence (O08914 1-579): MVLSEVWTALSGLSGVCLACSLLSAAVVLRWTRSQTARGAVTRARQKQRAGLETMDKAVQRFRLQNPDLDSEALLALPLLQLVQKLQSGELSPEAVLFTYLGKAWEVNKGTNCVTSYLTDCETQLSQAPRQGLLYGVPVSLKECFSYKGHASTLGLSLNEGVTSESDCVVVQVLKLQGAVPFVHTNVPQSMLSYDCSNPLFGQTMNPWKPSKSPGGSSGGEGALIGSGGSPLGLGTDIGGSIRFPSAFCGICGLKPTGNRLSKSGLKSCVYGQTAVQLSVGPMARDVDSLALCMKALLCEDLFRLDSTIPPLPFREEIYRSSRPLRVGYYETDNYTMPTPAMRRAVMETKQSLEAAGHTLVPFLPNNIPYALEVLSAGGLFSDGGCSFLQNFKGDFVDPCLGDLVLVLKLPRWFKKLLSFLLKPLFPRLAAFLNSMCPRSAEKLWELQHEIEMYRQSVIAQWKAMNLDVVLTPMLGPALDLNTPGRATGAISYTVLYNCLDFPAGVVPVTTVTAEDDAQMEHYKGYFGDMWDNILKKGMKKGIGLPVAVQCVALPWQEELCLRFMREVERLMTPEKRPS

MAGL = biological target: T3, MAGL (Mus musculus, UniProt O35678); assay: as above; assay type: biochemical; conditions: read-out: % Inhibition at 1 μM MAGL
T3 sequence (O35678 1-303): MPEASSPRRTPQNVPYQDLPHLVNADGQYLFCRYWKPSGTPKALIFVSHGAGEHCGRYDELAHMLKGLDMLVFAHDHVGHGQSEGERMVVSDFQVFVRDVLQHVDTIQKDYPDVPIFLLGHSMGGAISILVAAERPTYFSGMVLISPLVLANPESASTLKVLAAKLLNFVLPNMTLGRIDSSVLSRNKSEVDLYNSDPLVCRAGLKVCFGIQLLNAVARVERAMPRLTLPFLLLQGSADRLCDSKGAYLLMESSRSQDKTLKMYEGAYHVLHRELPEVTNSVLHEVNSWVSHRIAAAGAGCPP
Experimental: After 30 min, FP—Rh (1.0 μL, 50 μM in DMSO) was added and the mixture was incubated for another 30 min at 37° C. Reactions were quenched with SDS loading buffer (50 μL-4×) and run on SDS-PAGE.
Cell lysates were diluted with mock proteomes for use in competitive ABPP experiments.

Trypanosoma brucei = assay: Alamar Blue assay against Trypanosoma brucei; assay type: cell-based; conditions: read-out: IC50 T. brucei
Excerpt: The ability of disclosed compounds to inhibit Trypanosoma brucei (T. brucei) can be assessed using the Alamar Blue® assay (Räz et al., 1997. The Alamar Blue® assay to determine drug sensitivity of African trypanosomes (T.b. rhodesiense and T.b. gambiense) in vitro. Acta Tropica 68, 139-147). Bloodstream form trypanosomes are cultivated in Minimum Essential Medium (MEM). Standard curves can be generated by serially diluting T. brucei in culture medium and measuring fluorescence and absorbance after a period of incubation with Alamar Blue®. A drug sensitivity assay can be performed as described for the LILIT (long incubation low inoculation test) previously described (Brun and Lun, 1994. Drug sensitivity of Chinese Trypanosoma evansi and Trypanosoma equiperdum isolates. Vet. Parasitol. 52, 37-46) with minor modifications. Briefly, bloodstream form trypanosomes can be inoculated into microtiter plates and incubated in the presence of various disclosed compound concentrations for a period of time. Background fluorescence and absorbance of the drug-containing medium are determined for each drug dilution. Wells without drug serve as controls. Alamar Blue® is added after a period of time and fluorescence and colorimetric development is later determined.

[1] = system: Mycobacterium tuberculosis H37Rv (pFCA-luxAB); assay: microbe, parasite or virus in culture; assay type: cell-based; conditions: for inhibition at 100 µM: read-out: % Inhibition at 100 μM Mtb LORA
[2] = system: Mycobacterium Tuberculosis (Mtb); assay: Microplate Alamar Blue assay (MABA) against Mtb; assay type: cell-based
Experimental: The activity of disclosed compounds against Mtb can be assessed according to a method based on the microplate Alamar Blue® assay (MABA) (Collins and Franzblau, 1997. Microplate alamar blue assay versus BACTEC 460 system for high-throughput screening of compounds against Mycobacterium tuberculosis and Mycobacterium avium. Antimicrobial Agents and Chemotherapy 41, 1004-1009). Briefly, stock solutions of disclosed compounds are prepared and added to, for example, two wells of a microplate. One well is inoculated with broth containing Mtb. The second well receives only media in order to assess background fluorescence. For MICs, serial dilutions are performed in media. Each microplate is incubated for a period of time. After incubation, one control growth is developed with a mixture of Alamar Blue® solution and Tween 80. The plates are then reincubated. Afterwards, if the well turns pink, the dye mixture is placed into all wells and the plates are reincubated for an additional period of time. The mean fluorescence units (FU) of media-only wells are subtracted from all other wells. The results are expressed in terms of % inhibition defined as 1-(test well FU/mean FU of triplicate bacteria-only wells)×100. The MIC is defined as the lowest concentration effecting a reduction in fluorescence of ≧90% relative to bacteria-only controls.

O=C(ON1C(=O)CCC1=O)N1CC2CN(Cc3ccc(Cl)cc3N3CCC4(CCOCC4)C3)CC2C1 (centres unmarked) [Example 106, 2,5-Dioxopyrrolidin-1-yl 5-[(4-chloro-2-[8-oxa-2-azaspiro[4.5]decan-2-yl]phenyl)methyl]-octahydropyrrolo[3,4-c]pyrrole-2-carboxylate]
inhibition at 1 µM (ABHD6): < 25% | inhibition at 1 µM (FAAH): < 25% | inhibition at 1 µM (MAGL): 25 to 75% | IC50 (Trypanosoma brucei): < 5 µM

O=C(ON1C(=O)CCC1=O)N1CC2CN(Cc3ccc(-c4ccccc4)cc3)CC2C1 (centres unmarked) [Example 84, 2,5-Dioxopyrrolidin-1-yl 5-[(4-phenylphenyl)methyl]-octahydropyrrolo[3,4-c]pyrrole-2-carboxylate]
inhibition at 1 µM (ABHD6): 25 to 75% | inhibition at 1 µM (FAAH): > 75% | inhibition at 1 µM (MAGL): > 75% | inhibition at 100 µM [1]: > 80% | MIC [2]: 51 to 100 µM (≈ 21.4 to 41.9 µg/mL)

O=C(ON1C(=O)CCC1=O)N1CC2CN(C(c3ccc(Cl)cc3)c3ccc(Cl)cc3)CC2C1 (centres unmarked) [Example 83, 2,5-Dioxopyrrolidin-1-yl 5-[bis(4-chlorophenyl)methyl]-octahydropyrrolo[3,4-c]pyrrole-2-carboxylate]
inhibition at 1 µM (ABHD6): < 25% | inhibition at 1 µM (FAAH): < 25% | inhibition at 1 µM (MAGL): 25 to 75% | inhibition at 100 µM [1]: > 80% | MIC [2]: ≤ 50 µM

O=C(OC(C(F)(F)F)C(F)(F)F)N1CC2CN(Cc3ccc(-c4ccccc4)cc3)CC2C1 (centres unmarked) [Example 9, 1,1,1,3,3,3-Hexafluoropropan-2-yl 5-[(4-phenylphenyl)methyl]-octahydropyrrolo[3,4-c]pyrrole-2-carboxylate]
inhibition at 1 µM (ABHD6): 25 to 75% | inhibition at 1 µM (FAAH): 25 to 75% | inhibition at 1 µM (MAGL): > 75% | inhibition at 100 µM [1]: > 80% | MIC ([1]; read-out: MIC Mtb LORA): ≤ 50 µM | MIC [2]: ≤ 50 µM

— patent US9828379B2 (priority 2013, dated 2017)
